# Results published in patent publication US20150050220A1, “ANTIMICROBIAL COMPOSITION” (Rohm and Haas Company, priority 2011, published 2015).
# Assays:
# Type in all cases: cell-based
# [1] = system: Escherichia coli (E. coli - ATCC #10536); test: Automated assessment of efficacy in surfactant base, OD readout after 15 seconds exposure (Example 3)
# Procedure: In these examples, the efficacy of combinations of thymol and p-menthene alcohols were tested in a surfactant cleansing formulation comprising 2.85% sodium cocoyl glycinate and 1.85% sodium lauroamphoacetate. This corresponds to a 50% in use dilution with water of a typical neat formulation containing 5.7% cocoyl glycinate and 3.7% % sodium lauroamphoacetate during hand washing. Solutions were prepared such that the concentrations of the surfactant components and test actives were 1.1 times the final desired concentration in order to allow for dilution with the bacterial inoculum in the test. The solutions were manually adjusted to pH 10.0 by dropwise addition of sodium hydroxide solution, as measured with a pH meter at ambient temperature. […]
# The efficacy of the combinations of the present invention was determined against the same bacterium as in Example 1, Escherichia coli (E. coli—ATCC #10536), at a concentration of approximately 1×10^8 bacteria per mL.
# Tests were conducted using standard microtiter plate assays using an automated liquid handling system. […] After 5 minutes in the DIE quench, the optical density (OD) was measured for each plate in turn at two specific wavelengths (450 nm and 590 nm). […] Delta OD values were calculated by subtracting […] at time=16 hours. […]
# [2] = system: Escherichia coli (10536 strain); test: Assessment of antimicrobial efficacy and synergy: 15 seconds contact suspension kill test (Example 1); conditions: for MBC (minimum biocidal concentration): lowest concentration giving complete kill of E. coli, 15 seconds contact, component alone
# [3] = system: Escherichia coli (E. coli - ATCC #10536); test: High resolution MBC microtiter plate synergy assay in phosphate buffer containing 35% dipropylene glycol (Example 2); conditions: for MBC of component alone (MBCA, MBCB): complete kill in 15 seconds, phosphate buffer with 35% DPG, E. coli 10536; for ΣFBC: component alone
# Procedure: The materials were sourced in the same way as for Example 1. Synergy tests were conducted using standard microtiter plate assays with phosphate buffer containing 35% dipropylene glycol (DPG). […] The MBC plate was inoculated one column at a time with the test microorganism. An aliquot of the inoculated well was transferred at 15 seconds to a plate containing a neutralizing agent (D/E Neutralizing Broth), mixed and held for 5 minutes before being transferred to a growth plate containing trypticase soy broth (TSB). The TSB plate was incubated at 37° C. and read for the presence/absence of growth at 24 hours. […] This microorganism is representative of natural contaminants in many consumer and industrial applications.
Compound,"15 second bactericidal efficacy in combination with thymol (in words) ([1]; in combination with thymol at concentrations lower than their MBC, same surfactant formulation, all 4 or 6 replicates)",MBC (minimum biocidal concentration) [2] [% w/v],"MBC of p-menthene alcohol ([2]; value used to calculate FBC, for piperitols a lower boundary)","MBC of component alone (MBCA, MBCB) [3] [weight %]",ΣFBC [3],"Cb (end-point of second component in the mixture) ([3]; with Ca 0.08 of thymol, ratio A to B 1 to 2.5) [weight %]","Cb (end-point of second component in the mixture) ([3]; with Ca 0.2 of thymol, ratio A to B 1 to 0.13) [weight %]","Cb (end-point of second component in the mixture) ([3]; with Ca 0.2 of thymol, ratio A to B 1 to 0.25) [weight %]","Cb (end-point of second component in the mixture) ([3]; with Ca 0.2 of thymol, ratio A to B 1 to 0.38) [weight %]","Cb (end-point of second component in the mixture) ([3]; with Ca 0.2 of thymol, ratio A to B 1 to 0.5) [weight %]",MBC (minimum biocidal concentration) ([1]; in 2.85% sodium cocoyl glycinate + 1.85% sodium lauroamphoacetate solution at pH 10) [% w/v],"thymol concentration required for complete bacterial kill in combination ([2]; in combination with […](w/v) of 2-(4-methylcyclohex-3-enyl)-propan-1-ol, 4-fold reduction) [%]",MBC of thymol ([2]; value used to calculate FBC),"Ca (end-point of thymol in the mixture) ([3]; with Cb 0.025 of 2-(4-methylcyclohex-3-enyl)-propan-1-ol, ratio A to B 1 to 0.13) [weight %]","Ca (end-point of thymol in the mixture) ([3]; with Cb 0.05, ratio A to B 1 to 0.25) [weight %]","Ca (end-point of thymol in the mixture) ([3]; with Cb 0.075, ratio A to B 1 to 0.38) [weight %]","Ca (end-point of thymol in the mixture) ([3]; with Cb 0.1, ratio A to B 1 to 0.5) [weight %]","Ca (end-point of thymol in the mixture) ([3]; with Cb 0.2, ratio A to B 1 to 2.5) [weight %]"
"CC1=CCC(C(C)CO)CC1 (stereo not drawn) [2-(4-methylcyclohex-3-enyl)-propan-1-ol, 2-(4-methylcyclohex-3-enyl)propan-1-ol]",complete kill,0.15,0.15 % (w/v),0.3,1.00,0.2,0.025,0.05,0.075,0.1,–,–,–,–,–,–,–,–
"CC1=CCC(C(C)(C)O)CC1 (stereo not drawn) [alpha-terpineol, reference compound]",–,0.4,–,–,–,–,–,–,–,–,–,–,–,–,–,–,–,–
"Cc1ccc(C(C)C)c(O)c1 [thymol, 2-isopropyl-5-methylphenol, reference compound]",–,–,–,0.3,1.00,–,–,–,–,–,>0.2,0.0125,0.025 % (w/v),0.2,0.2,0.2,0.2,0.08
